The values below come from US9549921B2, “Heterocyclic compounds and methods of use thereof for the treatment of hepatitis C” (priority 2014, dated 2017).

Molecules are shown by their SMILES. Like-named read-outs stand apart in the source and are kept apart here.

Test [1] concerns HCV replicon genotype 1a. The test can be described thus: HCV replicon assay, genotype 1a (cell ELISA for NS3/4A). In kind it is cell-based, hepatitis C virus. The method, then:
(§1) The HCV NS5B inhibitory activity of the present compounds may be tested using assays known in the art. The HCV NS5B polymerase inhibitors described herein have activities in a genotype 1b replicon assay as described in the Examples. The assay is performed by incubating a replicon harboring cell-line in the presence of inhibitor for a set period of time and measuring the effect of the inhibitor on HCV replicon replication either directly by quantifying replicon RNA level, or indirectly by measuring enzymatic activity of a co-encoded reporter enzyme such as luciferase or β-lactamase. By performing a series of such measurements at different inhibitor concentrations, the effective inhibitory concentration of the inhibitor (EC50 or EC90) is determined. See Jan M. Vrolijk et al., A replicons-based bioassay for the measurement of interferons in patients with chronic hepatitis C, 110 J. VIROLOGICAL METHODS 201 (2003). Such assays may also be run in an automated format for high through-put screening. See Paul Zuck et al., A cell-based β-lactamase reporter gene assay for the identification of inhibitors of hepatitis C virus replication, 334 ANALYTICAL BIOCHEMISTRY 344 (2004).
(§2) Measurement of inhibition by compounds was performed using the HCV replicon system. Several different replicons encoding different HCV genotypes or mutations were used. In addition, potency measurements were made using different formats of the replicon assay, including different ways of measurements and different plating formats. See Jan M. Vrolijk et al., A replicons-based bioassay for the measurement of interferons in patients with chronic hepatitis C, 110 J. VIROLOGICAL METHODS 201 (2003); Steven S. Carroll et al., Inhibition of Hepatitis C Virus RNA Replication by 2′-Modified Nucleoside Analogs, 278(14) J. BIOLOGICAL CHEMISTRY 11979 (2003). However, the underlying principles are common to all of these determinations, and are outlined below.
(§3) Stable neomycin phosphotransferase encoding replicons-harboring cell lines were used, so all cell lines were maintained under G418 selection prior to the assay. Potency was deteremined using a cell ELISA assay with an antibody to the replicons encoded NS3/4a protease. See Caterina Trozzi et al., In Vitro Selection and Characterization of Hepatitis C Virus Serine Protease Variants Resistant to an Active-Site Peptide Inhibitor, 77(6) J. Virol. 3669 (2003). To initiate an assay, replicon cells were plated in the presence of a dilution series of test compound in the absence of G418. Typically, the assays were performed in a 96-well plate formate for manual operation, or a 384-well plate format for automated assay. Replicon cells and compound were incubated for 96 hours. At the end of the assay, cells were washed free of media and compound, and the cells were then lysed. RNA was quantified indirectly through detection of replicon-encoded NS3/4A protein levels, through an ELISA-based assay with an antibody specific for NS3/4A. IC50 determinations were calculated as a percentage of a DMSO control by fitting the data to a four-parameter fit function and the data obtained is provided in the table below.
(§4) Data for selected compounds of the present invention was obtained for genotypes 1a and 1b using this method and is provided in the table below: […]
(A replicon is a self-replicating genome or part of one, used to study replication in cells.)

Test [2] deals with HCV replicon genotype 1b. The test can be described thus: HCV replicon assay, genotype 1b (cell ELISA for NS3/4A). In kind it is cell-based, hepatitis C virus. The method, then:
as §1, §2, §3, §4

Setting [3] is: Hepatitis C virus, 96 h, read-out: 1a IC50 (nM), HCV genotype 1a replicon cells, 96 hours incubation, NS3/4A ELISA readout, % of DMSO control.
The mark [4] stands for this setting: Hepatitis C virus, 96 h, read-out: 1b IC50 (nM), HCV genotype 1b replicon cells, 96 hours incubation, NS3/4A ELISA readout, % of DMSO control.
The mark [5] stands for this setting: read-out: 1a IC50, HCV genotype 1a replicon cells, 96 hours incubation, NS3/4A ELISA readout, % of DMSO control.
Setting [6] is: read-out: 1b IC50, HCV genotype 1b replicon cells, 96 hours incubation, NS3/4A ELISA readout, % of DMSO control.

As to `CNC(=O)c1c(-c2ccc(F)cc2)oc2cc(N(C)S(C)(=O)=O)c([C@@H]3CCCN(C(=O)Cc4ccc(F)cc4)C3)cc12` (single isomer, unassigned) [Example 17, 2-(4-fluorophenyl)-5-(1-(2-(4-fluorophenyl)acetyl)piperidin-3-yl)-N-methyl-6-(N-methylmethylsulfonamido)benzofuran-3-carboxamide], the results for the IC50 in test [1] (setting [3]) and in test [2] (setting [4]) were 138 nM and 58.2 nM, respectively.

On to `CNC(=O)c1c(-c2ccc(F)cc2)oc2cc(N(C)S(C)(=O)=O)c([C@@H]3CCCN(C(=O)Cc4ccc(F)cc4)C3)cc12` (single isomer, unassigned) [Example 18, 2-(4-fluorophenyl)-5-(1-(2-(4-fluorophenyl)acetyl)piperidin-3-yl)-N-methyl-6-(N-methylmethylsulfonamido)benzofuran-3-carboxamide], for which the IC50 in test [1] (setting [5]) is 188 nM; in test [2] (setting [6]) it was 72.2 nM.

Take `CNC(=O)c1c(-c2ccc(F)cc2)oc2cc(N(C)S(C)(=O)=O)c([C@@H]3CCCN(C(=O)c4ccc(F)cc4)C3)cc12` (single isomer, unassigned) [Example 19, 5-(1-(4-fluorobenzoyl)piperidin-3-yl)-2-(4-fluorophenyl)-N-methyl-6-(N-methylmethylsulfonamido)benzofuran-3-carboxamide]: the IC50 in test [1] (setting [3]) came out at 43.8 nM; in test [2] (setting [4]) it was 50.8 nM.

As for `CNC(=O)c1c(-c2ccc(F)cc2)oc2cc(N(C)S(C)(=O)=O)c([C@@H]3CCCN(C(=O)c4ccc(F)cc4)C3)cc12` (single isomer, unassigned) [Example 20, 5-(1-(4-fluorobenzoyl)piperidin-3-yl)-2-(4-fluorophenyl)-N-methyl-6-(N-methylmethylsulfonamido)benzofuran-3-carboxamide], the IC50 in test [1] (setting [5]) stood at 48 nM; in test [2] (setting [6]), 46.9 nM.

In the case of `CNC(=O)c1c(-c2ccc(F)cc2)oc2cc(N(C)S(C)(=O)=O)c([C@@H]3CCCN(C(=O)c4cc5ccccc5[nH]4)C3)cc12` (single isomer, unassigned) [Example 21, 5-(1-(1H-indole-2-carbonyl)piperidin-3-yl)-2-(4-fluorophenyl)-N-methyl-6-(N-methylmethylsulfonamido)benzofuran-3-carboxamide], the IC50 in test [1] (setting [5]) turned out to be 16.2 nM; in test [2] (setting [4]) it was 9.96 nM.

As for `CNC(=O)c1c(-c2ccc(F)cc2)oc2cc(N(C)S(C)(=O)=O)c([C@@H]3CCCN(C(=O)c4cc5ccccc5[nH]4)C3)cc12` (single isomer, unassigned) [Example 22, 5-(1-(1H-indole-2-carbonyl)piperidin-3-yl)-2-(4-fluorophenyl)-N-methyl-6-(N-methylmethylsulfonamido)benzofuran-3-carboxamide], the figures for the IC50 in test [1] (setting [5]) and in test [2] (setting [6]) were 40.8 nM and 18.8 nM, respectively.

In the case of `CNC(=O)c1c(-c2ccc(F)cc2)oc2cc(N(C)S(C)(=O)=O)c([C@@H]3CCCN(C(=O)c4nc5ccccc5n4C)C3)cc12` (single isomer, unassigned) [Example 23, 2-(4-fluorophenyl)-N-methyl-5-(1-(1-methyl-1H-benzo[d]imidazole-2-carbonyl)piperidin-3-yl)-6-(N-methylmethylsulfonamido)benzofuran-3-carboxamide], the IC50 in test [1] (setting [3]) amounted to 45.5 nM; in test [2] (setting [4]), 57.7 nM.

Turning to `CNC(=O)c1c(-c2ccc(F)cc2)oc2cc(N(C)S(C)(=O)=O)c([C@@H]3CCCN(C(=O)c4nc5ccccc5n4C)C3)cc12` (single isomer, unassigned) [Example 24, 2-(4-fluorophenyl)-N-methyl-5-(1-(1-methyl-1H-benzo[d]imidazole-2-carbonyl)piperidin-3-yl)-6-(N-methylmethylsulfonamido)benzofuran-3-carboxamide], the IC50 in test [1] (setting [5]) came to 32.7 nM; in test [2] (setting [6]) it was 40.5 nM.

In the case of `CNC(=O)c1c(-c2ccc(F)cc2)oc2cc(N(C)S(C)(=O)=O)c([C@@H]3CCCN(C(=O)c4cc5c(F)cccc5n4C)C3)cc12` (single isomer, unassigned) [Example 25, 5-(1-(4-fluoro-1-methyl-1H-indole-2-carbonyl)piperidin-3-yl)-2-(4-fluorophenyl)-N-methyl-6-(N-methylmethylsulfonamido)benzofuran-3-carboxamide], the IC50 was found to be 16.4 nM in test [1] (setting [3]) and 5.26 nM in test [2] (setting [6]).

With `CNC(=O)c1c(-c2ccc(F)cc2)oc2cc(N(C)S(C)(=O)=O)c([C@@H]3CCCN(C(=O)c4cc5c(F)cccc5n4C)C3)cc12` (single isomer, unassigned) [Example 26, 5-(1-(4-fluoro-1-methyl-1H-indole-2-carbonyl)piperidin-3-yl)-2-(4-fluorophenyl)-N-methyl-6-(N-methylmethylsulfonamido)benzofuran-3-carboxamide], the IC50 in test [1] (setting [5]) worked out at 15.8 nM; in test [2] (setting [6]), 12.6 nM.

Take `CNC(=O)c1c(-c2ccc(F)cc2)oc2cc(N(C)S(C)(=O)=O)c(C3CCCN(C(=O)[C@H](NC(=O)OC(C)(C)C)c4ccccc4F)C3)cc12` (single isomer, unassigned) [Example 27]: the IC50 in test [1] (setting [3]) is 44.4 nM; in test [2] (setting [4]), 35.2 nM.

In the case of `CNC(=O)c1c(-c2ccc(F)cc2)oc2cc(N(C)S(C)(=O)=O)c(C3CCCN(C(=O)[C@H](NC(=O)OC(C)(C)C)c4ccccc4F)C3)cc12` (single isomer, unassigned) [Example 28], the IC50 in test [1] (setting [5]) was 23.9 nM; in test [2] (setting [6]), 21.4 nM.

As to `CNC(=O)c1c(-c2ccc(F)cc2)oc2cc(N(C)S(C)(=O)=O)c([C@@H]3CCCN(C(=O)[C@H](N)c4ccccc4F)C3)cc12` (single isomer, unassigned) [Example 29], the IC50 in test [1] (setting [3]) is 83.1 nM; in test [2] (setting [4]), 148 nM.

On to `CNC(=O)c1c(-c2ccc(F)cc2)oc2cc(N(C)S(C)(=O)=O)c([C@@H]3CCCN(C(=O)[C@H](N)c4ccccc4F)C3)cc12` (single isomer, unassigned) [Example 30], for which the IC50 in test [1] (setting [5]) stood at 122 nM; in test [2] (setting [6]), 215 nM.

On to `CNC(=O)c1c(-c2ccc(F)cc2)oc2cc(N(C)S(C)(=O)=O)c([C@@H]3CCCN(C(=O)c4cc5cccc(OC)c5[nH]4)C3)cc12` (single isomer, unassigned) [Example 41, 2-(4-fluorophenyl)-5-(1-(7-methoxy-1H-indole-2-carbonyl)piperidin-3-yl)-N-methyl-6-(N-methylmethylsulfonamido)benzofuran-3-carboxamide], for which the IC50 stood at 30.7 nM in test [1] (setting [5]) and 13.5 nM in test [2] (setting [4]).

Regarding `CNC(=O)c1c(-c2ccc(F)cc2)oc2cc(N(C)S(C)(=O)=O)c([C@@H]3CCCN(C(=O)c4cc5cccc(OC)c5[nH]4)C3)cc12` (single isomer, unassigned) [Example 42, 2-(4-fluorophenyl)-5-(1-(7-methoxy-1H-indole-2-carbonyl)piperidin-3-yl)-N-methyl-6-(N-methylmethylsulfonamido)benzofuran-3-carboxamide], the IC50 is 106 nM in test [1] (setting [5]) and 23.9 nM in test [2] (setting [6]).

As to `CNC(=O)c1c(-c2ccc(F)cc2)oc2cc(N(C)S(C)(=O)=O)c([C@@H]3CCCN(c4nc5ccccc5n4C)C3)cc12` (single isomer, unassigned) [Example 43, 2-(4-fluorophenyl)-N-methyl-5-(1-(1-methyl-1H-benzo[d]imidazol-2-yl)piperidin-3-yl)-6-(N-methylmethylsulfonamido)benzofuran-3-carboxamide], the values for the IC50 in test [1] (setting [3]) and in test [2] (setting [4]) were 41.2 nM and 93 nM, respectively.
